Data: patent publication US6420371B1, “Quinazolinone-containing pharmaceutical compositions for prevention of neovascularization and for treating malignancies” (Madasit Medical Research Services & Development Co., Ltd., priority 1997, dated 2002)

System: human leiomyosarcoma tumor cells
Assay: Proliferation ([3H]thymidine incorporation) of human leiomyosarcoma tumor cells
Assay type: cell-based
Procedure: Samples of human leiomyosarcoma tumors were obtained from women undergoing surgical hysterectomy, as described [R. S. Mangrulker, et al., ibid.]. Minced tissue was placed into 20 ml cold homogenization buffer: 1 M NaCl, 10 mM Tris (pH 7.4), 1 mM EDTA, 1 mM benzamidine, 0.1% CHAPS, 0.01% Aprotinin (Sigma), 10 μg/ml leupeptin, 1 mM AEBSF [R. S. Mangrulker, et al., ibid]. Samples were homogenized for 2 min and centrifuged at 12000 a g for 60 min at 4° C. The supernatants were diluted 1:5 with 10 mM Tris (pH 7.4) to a final volume of 100 ml and filtered with 0.45 μm nylon fibers. Cells were plated and maintained in DMEM plus 10% calf serum. The cells remained viable over a number of passages but were used at passages 2 or 3. For proliferation assays, cells were plated in 96-well plates at 10,000 cells/well an 200 μl medium (DMEM with 4.5 G/L glucose, 10% calf serum. 1% glutamine, 1% penicillin/streptomycin) and incubated 2 days until confluent. […] The medium was changed to DMEM with 0.5%calf serum, 1 μM insulin and 5 μM transferrin. After 24 h, the samples (5-10 μl) were added and after an additional 24 h, [^3H]thymidine (1 μCi/well) was added to each well. After 36-48 h incubation, the cells were fixed with methanol, and the DNA was precipitated with 5% trichloroacetic acid. The cells were lysed with 150 μl/well of 0.3 N NaOH, transferred to scintillation vials, and counted on a β-counter. […] The effect of Halofuginone on proliferation of HB-EGF (Heparin-Binding Epidermal Growth Factor) and serum-stimulated leiomyosarcoma cells was then examined. The leiomyosarcoma tumor cells were growth-arrested by 48 h incubation in medium containing 0.5% FCS. The cells were then exposed (24 h) to either 10% FCS or 10 ng/ml HB-EGF in the absence or presence of 10 ng/ml Halofuginone. [^3H]thymidine was then added and DNA synthesis measured 36 h later.

O=C(CC1NCCCC1O)Cn1cnc2cc(Br)c(Cl)cc2c1=O (stereo not drawn) [Halofuginone]
inhibition of cell proliferation induced by HB-EGF (10 ng/ml HB-EGF, 10 ng/ml Halofuginone, growth-arrested cells): complete inhibition | inhibition of cell proliferation induced by serum (10% FCS, 10 ng/ml Halofuginone, growth-arrested cells): complete inhibition | inhibition at 0.0025 µg/mL (Homo sapiens, 2.5 ng/ml Halofuginone (FIG. 11A)): 60 to 70%
